Data on four compounds can be found in paper PMC12799524, “Putative new biomarkers for renal transporter-mediated drug-drug interactions: Characterization as substrates of organic cation transporter 2, multidrug and toxin extrusion protein 1, and other important drug transporters” (Drug Metabolism and Disposition, 2025).

“Also recorded” adds a separate entry of the source.

One series relates to OCT2. The note with it: read-out: Km value for OCT2; ref Ma et al 17; cited from earlier work.
For a further series, the system named is OCT1. The note with it: read-out: Km for OCT1; cited from earlier work.
The next series deals with T1, MATE1 (Homo sapiens, UniProt Q96FL8).
T1 sequence (Q96FL8 1-570): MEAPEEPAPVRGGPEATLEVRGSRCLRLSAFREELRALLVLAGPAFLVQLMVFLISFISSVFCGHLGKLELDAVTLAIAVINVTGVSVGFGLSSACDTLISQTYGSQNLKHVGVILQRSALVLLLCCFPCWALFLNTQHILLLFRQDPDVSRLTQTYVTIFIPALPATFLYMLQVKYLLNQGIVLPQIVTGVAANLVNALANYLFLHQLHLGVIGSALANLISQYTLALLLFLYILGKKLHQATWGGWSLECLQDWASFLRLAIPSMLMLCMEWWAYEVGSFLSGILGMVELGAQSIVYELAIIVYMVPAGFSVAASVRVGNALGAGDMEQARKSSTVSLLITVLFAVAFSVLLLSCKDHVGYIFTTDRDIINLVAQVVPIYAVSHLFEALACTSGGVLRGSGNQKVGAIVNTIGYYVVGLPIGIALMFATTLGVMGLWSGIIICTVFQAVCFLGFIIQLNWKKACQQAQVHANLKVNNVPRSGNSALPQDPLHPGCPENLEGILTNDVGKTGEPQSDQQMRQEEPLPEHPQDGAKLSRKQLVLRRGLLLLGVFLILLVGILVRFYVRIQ
The experiment in a line: Concentration-dependent transport in HEK-MATE1 cells (Km, Vmax). It is filed as in vitro ADME. The arrangement: expressed in transfected cells; host or cells: HEK293 (HEK-MATE1). The note with it: HEK-MATE1 net uptake; for Vmax for MATE1-mediated uptake: 5 min; for Km at 5 min: human, HEK-MATE1 cells, read-out: Km for MATE1-mediated transport.

In the next series the target is T2, human OAT1 (Homo sapiens, UniProt Q4U2R8).
T2 construct: expressed in transfected cells; host or cells: HEK293 (HEK-OAT1), plasmid pOAT1.31 in pcDNA3.1/Hy(-)
T2 sequence (Q4U2R8 1-563): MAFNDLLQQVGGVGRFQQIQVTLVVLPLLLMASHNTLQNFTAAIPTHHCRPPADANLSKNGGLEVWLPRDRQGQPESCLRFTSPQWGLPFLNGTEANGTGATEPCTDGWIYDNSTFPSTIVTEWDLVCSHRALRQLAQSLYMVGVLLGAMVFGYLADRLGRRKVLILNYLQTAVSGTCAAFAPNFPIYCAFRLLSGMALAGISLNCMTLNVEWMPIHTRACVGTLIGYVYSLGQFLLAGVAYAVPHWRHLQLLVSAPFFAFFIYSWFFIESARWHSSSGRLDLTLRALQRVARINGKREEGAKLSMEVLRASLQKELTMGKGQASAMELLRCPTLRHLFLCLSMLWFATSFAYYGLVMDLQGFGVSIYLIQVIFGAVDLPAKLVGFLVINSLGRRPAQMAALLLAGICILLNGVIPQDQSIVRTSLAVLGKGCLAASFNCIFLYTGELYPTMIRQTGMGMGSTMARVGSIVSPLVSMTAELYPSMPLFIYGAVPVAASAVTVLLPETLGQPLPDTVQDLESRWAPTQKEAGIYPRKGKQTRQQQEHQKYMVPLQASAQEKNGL
The experiment in a line: Uptake assay in HEK-OAT1 vs HEK-VC cells. It is filed as in vitro ADME. As to the method: Transport experiments were performed 48 hours after seeding.

The target of the next series is T3, human OCT2 (Homo sapiens, UniProt O15244).
T3 sequence (O15244 1-555): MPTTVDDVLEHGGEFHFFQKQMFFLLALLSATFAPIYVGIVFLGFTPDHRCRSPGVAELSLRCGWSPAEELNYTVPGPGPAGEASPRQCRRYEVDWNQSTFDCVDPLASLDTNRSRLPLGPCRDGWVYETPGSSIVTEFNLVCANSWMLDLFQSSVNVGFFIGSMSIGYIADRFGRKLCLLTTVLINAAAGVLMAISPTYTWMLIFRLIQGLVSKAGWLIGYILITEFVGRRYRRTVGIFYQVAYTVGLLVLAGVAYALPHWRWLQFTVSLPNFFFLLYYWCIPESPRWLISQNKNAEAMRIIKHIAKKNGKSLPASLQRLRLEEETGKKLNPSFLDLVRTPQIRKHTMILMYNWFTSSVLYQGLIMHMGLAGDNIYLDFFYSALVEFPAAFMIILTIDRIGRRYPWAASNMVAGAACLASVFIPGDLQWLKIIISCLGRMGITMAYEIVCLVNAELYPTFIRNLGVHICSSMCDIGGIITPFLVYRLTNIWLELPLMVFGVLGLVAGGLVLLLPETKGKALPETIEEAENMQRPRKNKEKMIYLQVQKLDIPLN
The experiment in a line: Concentration-dependent transport in HEK-OCT2 cells (Km, Vmax). The note with it: concentrations up to 2000 μM; Km not calculable.

Experimental for MATE1: (§1) Data are presented in percentage of respective controls (which were set to 100%) or in pmol × mg protein^–1 × min^–1 for concentration-dependent transport as mean ± SEM. All results were normalized to the mean protein concentrations of the cell lysates in the respective control experiments.
(§2) Experiments with putative biomarkers in HEK-OCT2 or HEK-MATE1 cells were performed with 6 independent biological replicates, whereas all other experiments involving HEK, MDCK, or Caco-2 cells were performed with 4 independent biological replicates. Pairwise comparisons were analyzed for statistical significance with two-tailed unpaired Student’s t test and multiple comparisons by one-way ANOVA with subsequent Tukey-Kramer multiple comparison test by using GraphPad Prism 10.0.2 (GraphPad Software). A value of P < .05 was considered as statistically significant. Km and Vmax values were determined with Michaelis-Menten enzyme kinetics curve fit using GraphPad Prism 10.0.2.
Experimental for human OCT2: as §1, §2

As usually defined, the Km is the concentration of substrate that gives half-maximal velocity. On to `NCCc1c[nH]c2ccc(O)cc12` [Serotonin, serotonin], for which the Km in the series with OCT2 is 539 µM. Besides, the Km with OCT1 was 197 ± 42 µM. Also, at MATE1, the “Vmax for MATE1-mediated uptake” value was 154.3 ± 7.3 pmol*mg protein^-1*min^-1 and the Km at 5 min worked out at 52.7 ± 10.9 µM. On human OAT1, the “In Vitro OAT1 (substrate class)” value is listed as “-”.
For `NCCc1ccc(O)cc1` [Tyramine, tyramine], the “In Vitro OAT1 (substrate class)” value on human OAT1 is given as “-”.
On to `Cn1cnc(CCN)c1` [1-Methylhistamine, 1-methylhistamine], for which the “Saturation of net uptake in HEK-OCT2 cells” value at human OCT2 is “did not result in a saturation; also recorded: not saturable”. Besides, at MATE1, the “Vmax for MATE1-mediated uptake” value is given as 441.4 ± 50.5 pmol*mg protein^-1*min^-1 and the Km at 5 min was found to be 307 ± 88.1 µM. Further, the “In Vitro OAT1 (substrate class)” value at human OAT1 was “-”.
For `C[N+](C)(C)CCCCC(=O)[O-]` [5-Amino valeric acid betaine, 5-amino valeric acid betaine], at human OAT1, the “In Vitro OAT1 (substrate class)” value is “-”.
